From patent US6545007B2, “Methods for inhibiting the transmission of HIV using topically applied substituted 6-benzyl-4-oxopyrimidines” (Idenix (Cayman) Limited, priority 2000, dated 2003) come the findings set out here.

Broadly, the EC50 is the concentration giving half of the maximal effect. Low readings indicate greater potency, high ones weaker potency. As usually defined, the CC50 is the concentration giving 50% cytotoxicity. A high value points to better tolerance by the cells.

For one series, the system named is HIV-1 (IIIB strain). Type of series: cell-based. Conditions: for EC50: anti-HIV-1 activity, HIV-1-infected MT-4 cells; for SI: selectivity index (CC50/EC50). How it is done: Compounds. Compounds were solubilized in DMSO at 200 mM and then diluted into culture medium.
(§1) Cells and viruses. MT-4, C8166,H9/IIIB and CEM cells were grown at 37° C. in a 5% CO2 atmosphere in RPMI 1640 medium, supplemented with 10% fetal calf serum (FCS), 100 IU/mL penicillin and 100 μg/mL streptomycin. Cell cultures were checked periodically for the absence of mycoplasma contamination with a MycoTect Kit (Gibco). Human immunodeficiency virus type-I (HIV-1, IIIB strain) was obtained from supernatants of persistently infected H9/IIIB cells.
HIV Titration. Titration of HIV was performed in C8166 cells by the standard limiting dilution method (dilution 1:2, four replica wells per dilution) in 96-well plates. The infectious virus titre was determined by light microscope scoring of cytopathicity after 4 days of incubation and the virus titres were expressed as CCID50/mL.
(§2) Anti-HIV Assays. Activity of the compounds against HIV-1 and HIV-2 multiplication in acutely infected cells was based on the inhibition of virus-induced cytopathicity in MT-4 and C8166 cells, respectively. Briefly, 50 μL of culture medium containing 1×10^4 cells were added to each well of flat-bottom microtiter trays containing 50 μl of culture medium with or without various concentrations of the test compounds. Then 20 μL of an HIV suspension containing 100 CCID50 were added. After a 4-day incubation at 37° C., the number of viable cells was determined by the 3-(4,5-dimethylthiazol-[…])-2,5-diphenyltetrazolium bromide (MTT) method. Cytotoxicity of the compounds was evaluated in parallel with their antiviral activity. It was based on the viability of mock-infected cells, as monitored by the MTT method.

The test system of a further series is mock-infected MT-4 cells. The series can be described thus: Cytotoxicity: viability of mock-infected cells by the MTT method. Type of series: cell-based, human. How it is done:
as §1, §2

In the series on HIV-1 (IIIB strain), `CCCc1c(Cc2ccccc2)nc(SC(C)CC)[nH]c1=O` (stereo not drawn) [MC 856] displayed an EC50 of 12 µM and an SI of 16. For the same molecule, the CC50 with mock-infected MT-4 cells was 190 µM.

In the series on HIV-1 (IIIB strain), `CCC(C)Sc1nc(Cc2ccc(Cl)cc2)cc(=O)[nH]1` (stereo not drawn) [MC 859] registered an EC50 of 5 µM and an SI of 24. For the same molecule, the CC50 in the series on mock-infected MT-4 cells was found to be 120 µM.

With `CC(C)Sc1nc(Cc2c(F)cccc2F)cc(=O)[nH]1` [MC 860], in the series with HIV-1 (IIIB strain), the EC50 amounted to 0.2 µM and the SI is recorded as >1,000. The molecule also displayed a CC50 with mock-infected MT-4 cells of over 200 µM.

Turning to `CCC(C)Sc1nc(Cc2ccc([N+](=O)[O-])cc2)cc(=O)[nH]1` (stereo not drawn) [MC 863], in the series on HIV-1 (IIIB strain), it took 1.5 µM to reach a half-maximal effect (EC50) and the SI came to 101. In addition, the midpoint of cytotoxicity in the series on mock-infected MT-4 cells, the CC50, lay at 151 µM.

Regarding `CC(C)CSc1nc(Cc2c(F)cccc2F)cc(=O)[nH]1` [MC 866], in the series on HIV-1 (IIIB strain), a half-maximal response (EC50) required 0.14 µM and the SI is 1,300. Further, the CC50 in the series with mock-infected MT-4 cells stood at 182 µM.

As to `O=c1cc(Cc2c(F)cccc2F)nc(SC2CCCC2)[nH]1` [MC 867], in the series with HIV-1 (IIIB strain), the EC50 amounted to 0.08 µM and the SI was >2,500. In the series with mock-infected MT-4 cells, the CC50 was over 200 µM.

In the series with HIV-1 (IIIB strain), `CCC(C)Sc1nc(Cc2ccccc2C(F)(F)F)cc(=O)[nH]1` (stereo not drawn) [MC 868] showed an EC50 of 32 µM and an SI of 6.2. In the series with mock-infected MT-4 cells, this molecule gave a CC50 of over 200 µM.

As to `CSc1nc(Cc2c(F)cccc2F)c(C)c(=O)[nH]1` [MC 869], in the series on HIV-1 (IIIB strain), the midpoint of the response, the EC50, lay at 0.19 µM and the SI is reported as 1,053. In the series on mock-infected MT-4 cells, this molecule gave a CC50 of 200 µM.

Consider `O=c1cc(Cc2c(F)cccc2F)nc(SC2CCCCC2)[nH]1` [MC 870], for which, in the series with HIV-1 (IIIB strain), it took 0.08 µM to reach a half-maximal effect (EC50) and the SI is recorded as 2,500. For the same molecule, the CC50 in the series with mock-infected MT-4 cells was determined as 200 µM.

In the series with HIV-1 (IIIB strain), `CSc1nc(Cc2c(F)cccc2F)cc(=O)[nH]1` [MC 871] returned an EC50 of 0.81 µM and an SI of 247. Moreover, the CC50 in the series on mock-infected MT-4 cells was found to be 200 µM.

Consider `CCCCSc1nc(Cc2c(F)cccc2F)cc(=O)[nH]1` [MC 872], for which, in the series with HIV-1 (IIIB strain), the midpoint of the response, the EC50, lay at 0.18 µM and the SI was 900. In the series on mock-infected MT-4 cells, it took 162 µM to reach half-maximal cytotoxicity (CC50).

In the series with HIV-1 (IIIB strain), `CSc1nc(Cc2c(Cl)cccc2Cl)cc(=O)[nH]1` [MC 877] displayed an EC50 of 3.2 µM and an SI of over 62. In addition, the CC50 with mock-infected MT-4 cells is over 200 µM.

As for `CC(C)Sc1nc(Cc2c(Cl)cccc2Cl)cc(=O)[nH]1` [MC 878], in the series with HIV-1 (IIIB strain), a half-maximal effect (EC50) was put at 1.9 µM and the SI is over 105. In the series on mock-infected MT-4 cells, this molecule yielded a CC50 of over 200 µM.

In the series with HIV-1 (IIIB strain), `CCC(C)Sc1nc(Cc2ccccc2F)cc(=O)[nH]1` (stereo not drawn) [MC 880] gave an EC50 of 0.26 µM and an SI of 769. In the series with mock-infected MT-4 cells, this molecule came in with a CC50 of 200 µM.

With `Cc1c(Cc2c(F)cccc2F)nc(SC(C)C)[nH]c1=O` [MC 881], in the series with HIV-1 (IIIB strain), a half-maximal response (EC50) required 0.05 µM and the SI is given as >4,000. In the series on mock-infected MT-4 cells, this molecule registered a CC50 of over 200 µM.

In the series on HIV-1 (IIIB strain), `CCC(C)Sc1nc(Cc2cccc(F)c2)cc(=O)[nH]1` (stereo not drawn) [MC 884] showed an EC50 of 0.7 µM and an SI of over 286. Further, the CC50 in the series with mock-infected MT-4 cells is over 200 µM.

In the series with HIV-1 (IIIB strain), `CC(C)CSc1nc(Cc2c(Cl)cccc2Cl)cc(=O)[nH]1` [MC 885] returned an EC50 of 0.45 µM and an SI of over 444. Besides, the CC50 in the series on mock-infected MT-4 cells was over 200 µM.

Take `CCCCSc1nc(Cc2c(Cl)cccc2Cl)cc(=O)[nH]1` [MC 886]: in the series with HIV-1 (IIIB strain), a half-maximal effect (EC50) was put at 0.44 µM and the SI is given as over 454. In the series with mock-infected MT-4 cells, the CC50 was over 200 µM.

In the series on HIV-1 (IIIB strain), `O=c1cc(Cc2c(Cl)cccc2Cl)nc(SC2CCCC2)[nH]1` [MC 888] registered an EC50 of 0.4 µM and an SI of over 500. Further, the CC50 with mock-infected MT-4 cells is over 200 µM.

In the series with HIV-1 (IIIB strain), `CCC(C)Sc1nc(Cc2ccc(F)cc2)cc(=O)[nH]1` (stereo not drawn) [MC 889] showed an EC50 of 8.7 µM and an SI of 23. In the series on mock-infected MT-4 cells, the CC50 is over 200 µM.

Turning to `CC(C)Sc1nc(C(C)c2ccccc2)cc(=O)[nH]1` (stereo not drawn) [MC 890], in the series on HIV-1 (IIIB strain), the EC50 is 0.9 µM and the SI is on record as over 222. The same molecule came in with a CC50 with mock-infected MT-4 cells of over 200 µM.

With `O=c1cc(Cc2c(Cl)cccc2Cl)nc(SC2CCCCC2)[nH]1` [MC 891], in the series with HIV-1 (IIIB strain), a half-maximal effect (EC50) was put at 0.6 µM and the SI is over 333. Further, the CC50 with mock-infected MT-4 cells is over 200 µM.

Consider `CC(c1ccccc1)c1cc(=O)[nH]c(SC2CCCC2)n1` (stereo not drawn) [MC 892], for which, in the series with HIV-1 (IIIB strain), the midpoint of the response, the EC50, lay at 0.6 µM and the SI is 333. This molecule came in with a CC50 in the series on mock-infected MT-4 cells of 159 µM.

Consider `CCC(C)Sc1nc(Cc2cccc([N+](=O)[O-])c2)cc(=O)[nH]1` (stereo not drawn) [MC 897], for which, in the series with HIV-1 (IIIB strain), the EC50 is 0.4 µM and the SI is given as 392. Moreover, the CC50 with mock-infected MT-4 cells worked out at 157 µM.
